The subject of assay [1] is infections by sensitive bacteria. The assay can be described thus: In vivo activity against acute experimental infections in mice (PD50). Conditions: Mus musculus, sc; subcutaneous; mice infected intraperitoneally, at least one LD100; organism not given; read-out: PD50 (dose which protects 50% of the animals from infection). From the text: In determining such activity, acute experimental infections are produced in mice by the intraperitoneal inoculation of the mice with a standardized culture of the test organism suspended in 5 percent hog gastric mucin. Infection severity is standarized so that the mice receive at least one LD100 dose of the organism (LD100 : the minimum inoculum of organism required to consistently kill 100 percent of the infected, nontreated control mice). The test compound is then subcutaneously or orally administered at various dosage levels to groups of infected mice. At the end of the test, the activity of the mixture is assessed by counting the number of survivors among treated animals at a given dose. Activity is expressed as the percentage of animals which survive at a given dose, or calculated as a PD50 (dose which protects 50% of the animals from infection).

Assay [2] has as its system Past. mult. 1. The assay can be described thus: In vitro antibacterial activity (MIC), BHI agar. Format: cell-based. The conditions noted are these: 18 hours at 37° C., read-out: Minimum Inhibitory Concentration (MIC). Here is the method:
(§1) The procedure which is followed is the one recommended by the International Collaborative Study on Antibiotic Sensitivity Testing [Ericcson and Sherris, Acta. Pathologica et Microbiologia Scandinav, Supp. 217, Sections A and B: 64-68 (1971)], and employs brain heart infusion (BHI) agar and the inocula replicating device. Overnight growth tubes are diluted 100 fold for use as the standard inoculum (20,000-10,000 cells in approximately 0.002 ml are placed on the agar surface; 20 ml of BHI agar/dish). Twelve 2 fold dilutions of the test compound are employed, with initial concentration of the test drug being 200 mcg/ml. Single colonies are disregarded when reading plates after 18 hours at 37° C. The susceptibility (MIC) of the test organism is accepted as the lowest concentration of compound capable of producing complete inhibition of growth as judged by the naked eye. A comparison of the in vitro activity of various compounds of the formulae (I) and (II) with tylonolide is recorded in Table 1.

Assay [3] relates to Strep. pyog. 203. The assay can be described thus: In vitro antibacterial activity (MIC), BHI agar. The class given is cell-based. The conditions noted are these: 18 hours at 37° C., read-out: Minimum Inhibitory Concentration (MIC). Here is the method: as §1
The test system of assay [4] is E. coli 470. The assay can be described thus: In vitro antibacterial activity (MIC), BHI agar. The class given is cell-based. Conditions: read-out: Minimum Inhibitory Concentration (MIC). How it is done: as §1
Assay [5] deals with Staph. epi. 111. The assay can be described thus: In vitro antibacterial activity (MIC), BHI agar. Format: cell-based. The conditions noted are these: 18 hours at 37° C., read-out: Minimum Inhibitory Concentration (MIC). Here is the method:
as §1

The test system of assay [6] is Staph. aur. 52. The assay can be described thus: In vitro antibacterial activity (MIC), BHI agar. Format: cell-based. Conditions: 18 hours at 37° C., read-out: Minimum Inhibitory Concentration (MIC). How it is done: as §1
For assay [7], the system named is Strep. pneum. 12. The assay can be described thus: In vitro antibacterial activity (MIC), BHI agar. The class given is cell-based. The conditions noted are these: 18 hours at 37° C., read-out: Minimum Inhibitory Concentration (MIC). How it is done: as §1
Assay [8] has as its system Strep. faec. 6. The assay can be described thus: In vitro antibacterial activity (MIC), BHI agar. Conditions: 18 hours at 37° C., read-out: Minimum Inhibitory Concentration (MIC). Format: cell-based. Here is the method:
as §1

Assay [9] concerns Staph. aur. 5. The assay can be described thus: In vitro antibacterial activity (MIC), BHI agar. The class given is cell-based. The conditions noted are these: 18 hours at 37° C., read-out: Minimum Inhibitory Concentration (MIC). Here is the method:
as §1

Assay [10] concerns Neiss. sic. The assay can be described thus: In vitro antibacterial activity (MIC), BHI agar. The conditions noted are these: 18 hours at 37° C., read-out: Minimum Inhibitory Concentration (MIC). Format: cell-based. How it is done: as §1
Assay [11] relates to Staph. epi. 87. The assay can be described thus: In vitro antibacterial activity (MIC), BHI agar. The class given is cell-based. Conditions: read-out: Minimum Inhibitory Concentration (MIC). Here is the method:
as §1

The subject of assay [12] is Staph. epi. 126. The assay can be described thus: In vitro antibacterial activity (MIC), BHI agar. Conditions: 18 hours at 37° C., read-out: Minimum Inhibitory Concentration (MIC). The class given is cell-based. How it is done:
as §1

The test system of assay [13] is Staph. aur. 400. The assay can be described thus: In vitro antibacterial activity (MIC), BHI agar. The class given is cell-based. Conditions: 18 hours at 37° C., read-out: Minimum Inhibitory Concentration (MIC). How it is done: as §1
For assay [14], the system named is Bac. sub. 1. The assay can be described thus: In vitro antibacterial activity (MIC), BHI agar. The class given is cell-based. The conditions noted are these: 18 hours at 37° C., read-out: Minimum Inhibitory Concentration (MIC). Here is the method: as §1
Where [15] appears, read: Escherichia coli, E. coli 470, BHI agar, 18 hours at 37° C.

Molecules are shown by their SMILES. Values after ≈ are worked out from the molar mass of the structure shown. Where two headings read alike, the source gives them in different places. A value given as a limit tells only on which side of the number the result lay.

For the compound `CCC1OC(=O)CC(O)C(C)C(OC2OC(C)C(O)C(N(C)C)C2O)C(CC=O)CC(C)C(=O)C=CC(C)=CC1CO` [(a), 5-(3,6-dideoxy-3-dimethylamino-beta-D-glucopyrnosyloxy)-6-formylmethyl-3-hydroxy-14-hydroxymethyl-4,8,12-trimethyl-9-oxo-10,12-heptadecadien-15-olide, reference compound], the ED50 in assay [1] stood at 3.12 mg/kg. The MIC in assay [2] stood at 1.56 µg/mL (≈ 2.61 µM); in [3], 0.39 µg/mL (≈ 0.652 µM); in [4] (Escherichia coli, 470, 18 h), 3.12 µg/mL (≈ 5.22 µM); in assay [5], 1.56 µg/mL (≈ 2.61 µM); in assay [6], 0.78 µg/mL (≈ 1.3 µM); in [7], 0.1 µg/mL (≈ 0.167 µM). The MIC in assay [8] was determined as 0.78 µg/mL (≈ 1.3 µM); in [9], 0.78 µg/mL (≈ 1.3 µM); in [10], 6.25 µg/mL (≈ 10.5 µM); in assay [11] (18 h) it was 3.12 µg/mL (≈ 5.22 µM); in [12], 0.78 µg/mL (≈ 1.3 µM); in assay [13], 1.56 µg/mL (≈ 2.61 µM).
With `CCC1OC(=O)CC(O)C(C)C(OC2OC(C)C(O)C(N(C)C)C2O)C(CC=O)CC(C)C(=O)C=CC(C)=CC1COS(=O)(=O)c1ccc(C)cc1` (stereo not shown) [(b)], in [1], the ED50 was 19 mg/kg. Besides, the MIC in assay [2] was 3.12 µg/mL (≈ 4.15 µM); in assay [3], 0.2 µg/mL (≈ 0.266 µM); in assay [5] it was 1.56 µg/mL (≈ 2.07 µM); in assay [6], 0.78 µg/mL (≈ 1.04 µM); in [8], 0.39 µg/mL (≈ 0.519 µM); in assay [9], 0.78 µg/mL (≈ 1.04 µM). The MIC in assay [10] was 1.56 µg/mL (≈ 2.07 µM); in assay [14], 0.78 µg/mL (≈ 1.04 µM); in [12], 1.56 µg/mL (≈ 2.07 µM); in assay [13] it was 0.78 µg/mL (≈ 1.04 µM).
For `CCC1OC(=O)CC(O)C(C)C(OC2OC(C)C(O)C(N(C)C)C2O)C(CC=NN(C)C)CC(C)C(=O)C=CC(C)=CC1COS(=O)(=O)c1ccc(C)cc1` (stereo not shown) [(c)], the ED50 in [1] came to 50 mg/kg. Besides, the MIC in assay [2] was found to be 3.12 µg/mL (≈ 3.93 µM); in assay [3], 0.05 µg/mL (≈ 0.063 µM); in assay [5], 0.1 µg/mL (≈ 0.126 µM); in assay [6] it was 0.2 µg/mL (≈ 0.252 µM); in assay [8], 0.1 µg/mL (≈ 0.126 µM); in [9] it was 0.1 µg/mL (≈ 0.126 µM). Besides, the MIC stood at 0.78 µg/mL (≈ 0.982 µM) in assay [10], 0.2 µg/mL (≈ 0.252 µM) in [14], 1.56 µg/mL (≈ 1.96 µM) in assay [12] and 0.2 µg/mL (≈ 0.252 µM) in [13].
For the compound `CCC1OC(=O)CC(O)C(C)C(OC2OC(C)C(O)C(N(C)C)C2O)C(CC=O)CC(C)C(=O)C=CC(C)=CC1CI` (stereo not shown) [(d)], the MIC is 0.1 µg/mL (≈ 0.141 µM) in assay [3]; 0.78 µg/mL (≈ 1.1 µM) in assay [5]; 0.39 µg/mL (≈ 0.551 µM) in [6]; 3.12 µg/mL (≈ 4.41 µM) in assay [8]; 0.39 µg/mL (≈ 0.551 µM) in [9]; 0.78 µg/mL (≈ 1.1 µM) in assay [10]. For the same compound, the MIC in assay [14] is 0.78 µg/mL (≈ 1.1 µM); in assay [12] it was 6.25 µg/mL (≈ 8.83 µM); in assay [13] it was 1.56 µg/mL (≈ 2.2 µM).
With `CCC1OC(=O)CC(O)C(C)C(OC2OC(C)C(O)C(N(C)C)C2O)C(CC=NN(C)C)CC(C)C(=O)C=CC(C)=CC1CI` (stereo not shown) [(e)], in assay [1], the ED50 is above 50 mg/kg. Further, the MIC is 1.56 µg/mL (≈ 2.08 µM) in assay [2]; 0.1 µg/mL (≈ 0.133 µM) in assay [3]; 0.2 µg/mL (≈ 0.267 µM) in [5]; 0.2 µg/mL (≈ 0.267 µM) in assay [6]; 0.39 µg/mL (≈ 0.52 µM) in assay [8]; 0.2 µg/mL (≈ 0.267 µM) in assay [9]. Also, the MIC was determined as 0.39 µg/mL (≈ 0.52 µM) in assay [10], 0.1 µg/mL (≈ 0.133 µM) in assay [14], 0.78 µg/mL (≈ 1.04 µM) in assay [12] and 0.2 µg/mL (≈ 0.267 µM) in assay [13].
In the case of `CCC1OC(=O)CC(OC(C)=O)C(C)C(OC2OC(C)C(O)C(N(C)C)C2O)C(CC=O)CC(C)C(=O)C=CC(C)=CC1CN(C)C` (stereo not shown) [(f)], the MIC in assay [2] came to 6.25 µg/mL (≈ 9.37 µM); in assay [3] it was 0.39 µg/mL (≈ 0.585 µM); in [5] it was 1.56 µg/mL (≈ 2.34 µM); in [6] it was 3.12 µg/mL (≈ 4.68 µM); in [8] it was 6.25 µg/mL (≈ 9.37 µM); in [9] it was 3.12 µg/mL (≈ 4.68 µM). Further, the MIC came out at 3.12 µg/mL (≈ 4.68 µM) in assay [10], 0.78 µg/mL (≈ 1.17 µM) in assay [14], 1.56 µg/mL (≈ 2.34 µM) in assay [12] and 3.12 µg/mL (≈ 4.68 µM) in assay [13].
For the compound `CCC1OC(=O)CC(O)C(C)C(OC2OC(C)C(O)C(N(C)C)C2O)C(CC=O)CC(C)C(=O)C=CC(C)=CC1CCl` (stereo not shown) [(g)], the ED50 in [1] worked out at 13 mg/kg. Also, the MIC came to 1.56 µg/mL (≈ 2.53 µM) in [2]; 0.39 µg/mL (≈ 0.633 µM) in assay [3]; 0.78 µg/mL (≈ 1.27 µM) in assay [4] (setting [15]); 0.2 µg/mL (≈ 0.325 µM) in [5]; 0.78 µg/mL (≈ 1.27 µM) in [6]; 0.02 µg/mL (≈ 0.0325 µM) in [7]. Moreover, the MIC was 0.78 µg/mL (≈ 1.27 µM) in assay [8]; 0.78 µg/mL (≈ 1.27 µM) in assay [9]; 1.56 µg/mL (≈ 2.53 µM) in assay [10]; 0.1 µg/mL (≈ 0.162 µM) in [14]; 25 µg/mL (≈ 40.6 µM) in assay [11] (Staph. epi. 87, BHI agar, 18 hours at 37° C.); 0.78 µg/mL (≈ 1.27 µM) in assay [12]. For the same compound, the MIC in assay [13] is 0.39 µg/mL (≈ 0.633 µM).
Consider `CCC1OC(=O)CC(O)C(C)C(OC2OC(C)C(O)C(N(C)C)C2O)C(CC=O)CC(C)C(=O)C=CC(C)=CC1CN(C)C` (stereo not shown) [(h)], for which the ED50 in assay [1] is 2.4 mg/kg. Besides, the MIC in [2] is 1.56 µg/mL (≈ 2.5 µM); in assay [3], 0.2 µg/mL (≈ 0.32 µM); in assay [4] (setting [15]) it was 1.56 µg/mL (≈ 2.5 µM); in assay [5], 0.78 µg/mL (≈ 1.25 µM); in assay [6], 1.56 µg/mL (≈ 2.5 µM); in [7], 0.39 µg/mL (≈ 0.624 µM). Further, the MIC in [8] came to 3.12 µg/mL (≈ 4.99 µM); in assay [9], 0.78 µg/mL (≈ 1.25 µM); in [10], 12.5 µg/mL (≈ 20 µM); in assay [12], 3.12 µg/mL (≈ 4.99 µM); in [13] it was 1.56 µg/mL (≈ 2.5 µM).

Values taken from patent publication US4454314A, “Antibacterial mycaminosyl tylonolide and related macrolide derivatives” (Pfizer Inc., priority 1982, dated 1984).
